This is an account of results in article PMC4912613, “A broad analysis of resistance development in the malaria parasite” (Nature Communications, 2016).

Molecules are shown by their SMILES. pEC50: −log10 of the molar value. Like-named read-outs stand apart in the source and are kept apart here.

The test system of assay [1] is CYTbQi (cytb G33A, parent Dd2). In words: Cross-resistance EC50 assay, CYTbQi. It is filed as cell-based. Conditions: Plasmodium falciparum; SYBR green 72 hour assay; synchronized parasites; 384-well format; strain CYTbQi (Dd2 parent). The text has this: (§1) To evaluate potential overlapping activity against known antimalarial drug targets, we performed dose-response studies with each compound against our assembled set of drug-resistant lines and their corresponding parents, in an asexual blood stage proliferation assay (Table 1). Comparisons were made to the drug-sensitive strain 3D7 when a parent was unavailable (TM90C2A, W2 and Dd2). As laboratories conducted EC50 assays with different strains and protocols, all comparisons were made between assays from the same laboratory and under the same assay conditions. Compounds displaying >5-fold EC50 shifts relative to the parent or sensitive strain were flagged as having potentially non-novel targets. Average fold shifts per strain ranged from 0.82 to 2.34, with a median of 1.23 indicating there was not common resistance to any one resistant clone. No resistance patterns were observed when classifying the compounds based on chemical structure, but this was not surprising given the diversity of compounds chosen. On the other hand, given that these confirmed compounds were derived from larger unconfirmed hit lists to which some filtration criteria may have been applied (for example, elimination of obvious dihydrofolate reductase inhibitors[32]), some[10][11][12][13] pre-existing bias may exist in the set. […]
(§2) Alternatively, a SYBR Green-based proliferation approach was used for the 72-h assay, as previously described. Briefly, a culture of either synchronized or asynchronous parasitized RBCs (0.3% parasitemia and 4% haematocrit) in screening medium (identical to supplemented medium above except no serum was added) was exposed to serial drug dilutions. Plates were incubated at 37 °C and gassed with 93% N2, 4% CO2 and 3% O2 for 72 h. Following incubation, 10 × SYBR Green I (Invitrogen; supplied in 10,000 × concentration) in lysis buffer ([…], 5 mM EDTA, 0.16% Saponin wt per vol and 1.6% Triton X vol per vol) was added to the wells and the plates were incubated overnight at room temperature before plate reading. EC50 assays were repeated three times, taking the average EC50 value from each assay set, and removing any outliers using a single iteration of Grubbs' test, eliminating values with z-scores above the critical z-value (α=0.05). The raw EC50 values for synchronized parasites assayed in a 384-well format are listed in Supplementary Data 4. The raw EC50 values for asynchronous parasites assayed in a 96 or 1536-well format are listed in Supplementary Data 5.
(§3) EC50 values for each strain were compared with those of the corresponding parent strain to determine fold-shift changes and identify resistance. To minimize the cause variance between assays, all comparisons were conducted between strains assayed under identical conditions. A one-way ANOVA followed by a Dunnet's post-test was conducted in GraphPad Prism to identify significant changes between the parent and resistant strain.

Another assay relates to W2. The assay can be described thus: Cross-resistance EC50 assay, W2 parent. It is filed as cell-based, Plasmodium falciparum. Conditions: for pEC50: Plasmodium falciparum, 48 h, read-out: W2F6 (PARENT) Average EC50. The text has this:
(§4) Multidrug resistance alleles, including mutations in P. falciparum chloroquine resistance transporter (pfcrt) and P. falciparum multi-drug resistance transporter 1 (pfmdr1) are very common in field isolates. Therefore, we sought to assess the degree to which pre-existing resistance alleles would contribute to a loss of potency for this diverse collection of small molecule compounds. Fifteen clones derived from three main parent lines were chosen to maximize diversity in mutated pathways and genetic backgrounds, thus representing the variety of resistance seen in the field: 3D7 (ref. [23]), W2 (ref. [24]) or Dd2 (ref. [25]). The 3D7 line originates from the clone of a Netherlands clinical isolate strain[23][26] and is generally considered to be drug sensitive, though it does convey resistance to sulfadoxine. Conversely, W2 (ref. [24], [27]) and Dd2 (ref. [25]) are multi-drug-resistant lines originating from the Indochina III/CDC isolate, which contain point mutations in pfcrt as well as amplifications in pfmdr1 and GTP cyclohydrolase.
To evaluate potential overlapping activity against known antimalarial drug targets, we performed dose-response studies with each compound against our assembled set of drug-resistant lines and their corresponding parents, in an asexual blood stage proliferation assay (Table 1). Comparisons were made to the drug-sensitive strain 3D7 when a parent was unavailable (TM90C2A, W2 and Dd2). As laboratories conducted EC50 assays with different strains and protocols, all comparisons were made between assays from the same laboratory and under the same assay conditions. Compounds displaying >5-fold EC50 shifts relative to the parent or sensitive strain were flagged as having potentially non-novel targets. Average fold shifts per strain ranged from 0.82 to 2.34, with a median of 1.23 indicating there was not common resistance to any one resistant clone. No resistance patterns were observed when classifying the compounds based on chemical structure, but this was not surprising given the diversity of compounds chosen. On the other hand, given that these confirmed compounds were derived from larger unconfirmed hit lists to which some filtration criteria may have been applied (for example, elimination of obvious dihydrofolate reductase inhibitors[32]), some[10][11][12][13] pre-existing bias may exist in the set.
The 48-h assay was carried out in a 96-well format following standard methods using the ^3H-hypoxanthine incorporation assay. The raw EC50 values corresponding to this assay can be found in Supplementary Data 3. Briefly, this assay relies on the parasite incorporation of labelled hypoxanthine that is proportional to P. falciparum growth. A culture of parasitized RBCs (0.5% parasitemia with a percentage of ring stage higher than 70% of total parasitemia, 2.0% haematocrit) in RPMI-1640, […] and 5 μM hypoxanthine was exposed to drug serial dilutions. Plates were incubated for 24 h at 37 °C, 5% CO2, 5% O2 and 90% N2. After 24 h of incubation, ^3H-hypoxanthine was added and plates were incubated for an additional 24-h period. After that, parasites were harvested on a glass fibre filter using a TOMTEC Cell Harvester 96. Filters were dried and melt-on scintillator sheets were used to determine the incorporation of ^3H-hypoxanthine. Radioactivity was measured using a microbeta counter. Data were normalized using the incorporation of the positive (parasitized RBCs without drug) and negative (same culture with artesunate at 2 μM) controls. All assays were conducted in triplicate using three independently grown cultures, and EC50 values were determined using the XLfit add-in module for Excel (version 2.3.1) from Grafit (version 5.3.1.3), where parameter h is the assay hill slope, x is the compound concentration and y is the inhibition of growth effect. The XLfit equation is: […]
Alternatively, a SYBR Green-based proliferation approach was used for the 72-h assay, as previously described. […]

In a further assay the test system is Dd2. In words: Cross-resistance EC50 assay, Dd2 parent. Conditions: for pEC50 / EC50: Plasmodium falciparum, DD2, 72 h; for pEC50: read-out: Dd2 (PARENT) Average EC50; for EC50: read-out: Dd2 (PARENT) EC50 (µM) Average EC50. It is filed as cell-based, Plasmodium falciparum.
Excerpt: as §4, §1, §2, §3

On to `CN(C)Cc1ccc(-c2cc3c(-c4ccc(CN(C)C)cc4)ccnc3[nH]2)cc1.O=C(O)C(F)(F)F` [MMV022224], for which the pEC50 (commonly the negative decadic logarithm of the EC50, by convention in mol/L) is 6.49 in assay [1], 6.39 in the assay with W2 and 6.39 with Dd2. In addition, in the assay with Dd2, the EC50 (as a rule, the concentration needed to bring the measured effect to its halfway point) was 0.302 µM.
Turning to `Nc1ncc(-c2cn[nH]c2)cc1-c1nc2ccc(F)cc2[nH]1` [MMV023367], the pEC50 was 6.20 in assay [1], 6.61 with W2 and 6.18 in the assay with Dd2. Moreover, in the assay on Dd2, the EC50 is 1.96 µM.
Consider `CN(C)S(=O)(=O)c1cc(-c2ccc3nccc(-c4cccc(S(N)(=O)=O)c4)c3c2)cnc1N` [MMV024038], for which the values for the pEC50 (in assay [1]; with W2; in the assay with Dd2) were 6.79, 6.49 and 6.97, respectively. Further, the EC50 in the assay on Dd2 was determined as 0.509 µM.
Consider `Cc1ccc(S(=O)(=O)n2cc(-c3ccnc(N)c3)c3cc(Br)cnc32)cc1` [MMV024114], for which the results for the pEC50 (in assay [1]; with W2; in the assay with Dd2) were 5.86, 5.98 and 6.12, respectively. Moreover, the EC50 with Dd2 was determined as 1.64 µM.
As to `CNCc1ccc2nc(-c3coc(Cc4cc(Cl)ccc4OCC(C)C)n3)[nH]c2c1.Cl.Cl` [MMV026596], the pEC50 in assay [1] is 6.37; in the assay with W2, 6.19; in the assay on Dd2 it was 6.46. The EC50 with Dd2 is 0.158 µM.
`COc1cc(-c2nc(-c3ccccc3)c(-c3ccccc3)[nH]2)ccc1OCCN(C)C` [MMV027496]: the pEC50 in assay [1] is 6.50; with W2, 6.57; in the assay with Dd2 it was 6.52. Besides, the EC50 in the assay with Dd2 was determined as 0.74 µM.
The matching figures for `Cc1nc2ccc3ccc(CNc4ccc(C(=O)CC(CCC(=O)O)C(=O)O)cc4)cc3c2c(=O)[nH]1.Cl` (stereo not drawn) [MMV027634]: 7.38, 7.21, 7.46 and 0.124 µM.
`CC(C)c1cccc(C(NC(=O)C2Cc3ccccc3CN2C(=O)c2cccc(N3CCOCC3)c2)C2CCCC2)c1` (stereo not drawn) [MMV028038]: the pEC50 in assay [1] is 6.47; with W2, 6.31; in the assay with Dd2 it was 6.52. In the assay on Dd2, the EC50 worked out at 0.622 µM.
On to `CN(C)CCCN(C)C(=O)C1Cc2cc(-c3ccccc3)ccc2N1S(=O)(=O)c1ccccc1` (stereo not drawn) [MMV028895], for which the pEC50 in assay [1] is 6.13; in the assay on W2 it was 6.82; with Dd2, 6.46. Also, the “potency against W2 strains” value in the assay on W2 (compared with 3D7) was “maintained potency”. The EC50 in the assay with Dd2 came out at 6.01 µM. Besides, the “EC50 fold-shift, Dd2 compared with 3D7” value with Dd2 (loss of efficacy) is recorded as 7.1 ×.
For the compound `O=C(NCC(CCCN1CCC(c2c[nH]c3ccccc23)CC1)c1ccccc1)Nc1ccc(Cl)c(Cl)c1` (stereo not drawn) [MMV029272], the pEC50 in assay [1] was 6.21; in the assay on W2, 6.08; in the assay with Dd2 it was 6.08. In addition, the EC50 in the assay on Dd2 was found to be 0.285 µM.
With `CC(C)(C)OC(=O)N1CCN(c2ccccc2NC(=O)c2cccc(C(F)(F)F)c2Oc2ccc(F)cc2)CC1` [MMV030666], the pEC50 is 6.45 in assay [1], 6.53 in the assay on W2 and 6.43 with Dd2. For the same compound, in the assay on Dd2, the concentration giving a half-maximal response (EC50) was 0.255 µM.
Regarding `CC(NCc1ccccc1)c1cc(Cl)ccc1O` (stereo not drawn) [MMV665789], the pEC50 in assay [1] was 6.17; in the assay with W2 it was 6.83; in the assay with Dd2 it was 6.32. Also, the EC50 in the assay on Dd2 is 0.333 µM.
Take `FC(F)(F)c1cccc(Nc2nc3ccccc3nc2Nc2cccc(C(F)(F)F)c2)c1` [MMV665794]: the figures for the pEC50 (in assay [1]; in the assay with W2; in the assay on Dd2) were 6.89, 6.74 and 6.95, respectively. In the assay with Dd2, the EC50 is 0.199 µM.
As to `O=C(Nc1ccc(Cl)c(Cl)c1)Nc1ccc(Cl)c(Cl)c1` [MMV665852], the pEC50 is 6.00 in assay [1], 5.80 in the assay on W2 and 6.05 with Dd2. Besides, in the assay with Dd2, the EC50 was 1.8 µM.
Regarding `OC(CNC1CCCCC1)Cn1c2ccc(I)cc2c2cc(I)ccc21` (stereo not drawn) [MMV665882], the figures for the pEC50 (in assay [1]; in the assay with W2; in the assay on Dd2) were 7.60, 7.59 and 7.30, respectively. The EC50 with Dd2 stood at 0.038 µM.
In the case of `O=C(Nc1ccccc1O)c1ccc(Oc2cccc(C(=O)Nc3ccccc3O)c2)cc1` [MMV665888], the pEC50 was 6.22 in assay [1], 6.29 in the assay with W2 and 6.21 in the assay with Dd2. For the same compound, the EC50 with Dd2 was determined as 0.66 µM.
Turning to `COc1ccc(C(=O)C2CC2c2ccc(Cl)cc2)cc1` (stereo not drawn) [MMV665924], the results for the negative-log EC50 (pEC50) (in assay [1]; with W2; with Dd2) were 5.95, 5.86 and 5.92, respectively. Moreover, the EC50 with Dd2 was 1.58 µM.
`CCC(C)NCC(O)(c1ccc(Cl)cc1)c1ccc(Cl)cc1` (stereo not drawn) [MMV665928]: the pEC50 in assay [1] was 6.31; with W2 it was 6.86; with Dd2, 6.37. The EC50 in the assay with Dd2 was 0.331 µM.
On to `O=C(Nc1ccsc1C(=O)NC1CCCCC1)c1ccc(F)cc1` [MMV665939], for which the pEC50 in assay [1] was 5.79; in the assay with W2 it was 5.01; in the assay on Dd2 it was 5.71. In addition, the “EC50 fold-shift, W2 compared with 3D7” value in the assay with W2 (loss of efficacy) turned out to be 9.5 ×. Moreover, the EC50 with Dd2 was 2.06 µM. Further, the “EC50 fold-shift, Dd2 compared with 3D7, average” value with Dd2 (average) came to 2.4 ×.
As to `Nc1ccc(-c2nc3cc(Cc4ccc5[nH]c(-c6ccc(N)cc6)nc5c4)ccc3[nH]2)cc1` [MMV665943], the pEC50 was 6.35 in assay [1], 6.72 in the assay on W2 and 6.39 in the assay with Dd2. For the same compound, the EC50 in the assay on Dd2 worked out at 0.488 µM.
Take `O=C(NC(c1ccccc1)c1ccc2cccnc2c1O)c1ccccc1` (stereo not drawn) [MMV666080]: the values for the pEC50 (in assay [1]; in the assay on W2; with Dd2) were 5.89, 5.50 and 6.37, respectively. The 50% effective concentration (EC50) with Dd2 was found to be 0.886 µM.
With `COc1cc(C(=O)ON=C(N)Cc2cccc3ccccc23)cc(OC)c1OC` [MMV666687], the figures for the pEC50 (in assay [1]; in the assay on W2; in the assay with Dd2) were 6.23, 6.33 and 6.50, respectively. Further, the EC50 in the assay with Dd2 came out at 0.87 µM.
For the compound `c1cc(-c2cnc3ccc(-c4ccc(N5CCOCC5)cc4)nn23)ccn1` [MMV668311], the pEC50 was 7.18 in assay [1], 7.54 in the assay with W2 and 7.25 with Dd2. Moreover, the EC50 with Dd2 stood at 0.039 µM.
